Tests used:
Experiment in all cases: relative viability (nuclei count vs DMSO), 5 days (fraction); higher = more cells survive
Bortezomib + Pictilisib = compound: CC(C)C[C@H](NC(=O)[C@H](Cc1ccccc1)NC(=O)c1cnccn1)B(O)O [Bortezomib] + CS(=O)(=O)N1CCN(Cc2cc3nc(-c4cccc5[nH]ncc45)nc(N4CCOCC4)c3s2)CC1 [Pictilisib] (partner 1 µM)
Procedure, shortened: (§1)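 A single step with final 0.05% Triton X-100, 1% formaldehyde and 1 ug/ml Hoechst fixed the cells and stained nuclei 5 days after treatment. Lung cancer cell lines in 1536-well plates had been treated by pin tool the day after seeding with one drug alone or a fixed anchor-drug dose plus five library-drug doses (not always all listed) in √10 steps, and nuclei were counted on 4× images. Relative viability is the ratio of nuclei in treated wells to nuclei in vehicle wells, taken as the median of duplicate plates.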

[1] = compound: CC1=CC(=NN1)NC2=CC(=NC(=N2)/C=C/C3=CC=CC=C3)N4CCN(CC4)C + Cc1nc(Nc2ncc(C(=O)Nc3c(C)cccc3Cl)s2)cc(N2CCN(CCO)CC2)n1 [Dasatinib] (partner 0.075 µM)
Procedure, shortened: as §1

Obatoclax + Crizotinib = compound: COC1=CC(c2cc3ccccc3[nH]2)=N/C1=C\c1[nH]c(C)cc1C [Obatoclax] + C[C@@H](Oc1cc(-c2cnn(C3CCNCC3)c2)cnc1N)c1c(Cl)ccc(F)c1Cl [Crizotinib] (partner 1 µM)
Procedure, shortened: as §1

Obatoclax + Tozasertib = compound: COC1=CC(c2cc3ccccc3[nH]2)=N/C1=C\c1[nH]c(C)cc1C [Obatoclax] + Cc1cc(Nc2cc(N3CCN(C)CC3)nc(Sc3ccc(NC(=O)C4CC4)cc3)n2)n[nH]1 [Tozasertib] (partner 0.1 µM)
Procedure, shortened: as §1

Cell Line | relative viability (Bortezomib + Pictilisib; first compound 0.0002 µM) | relative viability (Bortezomib + Pictilisib; first compound 0.000632 µM) | relative viability (Bortezomib + Pictilisib; first compound 0.002 µM) | relative viability (Bortezomib + Pictilisib; first compound 0.006325 µM) | relative viability (Bortezomib + Pictilisib; first compound 0.02 µM) | relative viability ([1]; first compound 0.08 µM) | relative viability ([1]; first compound 0.253 µM) | relative viability ([1]; first compound 0.8 µM) | relative viability ([1]; first compound 2.53 µM) | relative viability ([1]; first compound 8 µM) | relative viability (Obatoclax + Crizotinib; first compound 0.01 µM) | relative viability (Obatoclax + Crizotinib; first compound 0.03162 µM) | relative viability (Obatoclax + Crizotinib; first compound 0.1 µM) | relative viability (Obatoclax + Crizotinib; first compound 0.3162 µM) | relative viability (Obatoclax + Crizotinib; first compound 1 µM) | relative viability (Obatoclax + Tozasertib; first compound 0.01 µM) | relative viability (Obatoclax + Tozasertib; first compound 0.03162 µM) | relative viability (Obatoclax + Tozasertib; first compound 0.1 µM) | relative viability (Obatoclax + Tozasertib; first compound 0.3162 µM) | relative viability (Obatoclax + Tozasertib; first compound 1 µM)
NCI-H1651 | 0.406 | 0.532 | 0.591 | 0.0909 | 0.0929 | 0.423 | 0.398 | 0.407 | 0.171 | 0.116 | 0.906 | 0.831 | 0.863 | 0.89 | 0.891 | 0.796 | 0.752 | 0.737 | 0.552 | 0.468
NCI-H1666 | 0.451 | 0.518 | 0.41 | 0.198 | 0.168 | 0.787 | 0.874 | 0.778 | 0.659 | 0.294 | 1.08 | 1.04 | 0.867 | 0.284 | 0.265 | 0.634 | 0.739 | 0.694 | 0.367 | 0.398
NCI-H1734 | 0.483 | 0.301 | 0.36 | 0.224 | 0.128 | 0.4 | 0.454 | 0.464 | 0.257 | 0.111 | 0.665 | 0.701 | – | 0.625 | 0.447 | 0.296 | 0.264 | 0.265 | 0.236 | 0.226
NCI-H1755 | 0.441 | 0.322 | 0.43 | 0.171 | 0.137 | 0.465 | 0.466 | 0.425 | 0.253 | 0.14 | 0.846 | 0.833 | 0.813 | 0.925 | 0.867 | 0.542 | 0.537 | 0.574 | 0.574 | 0.515
NCI-H1915 | 0.808 | 0.941 | 1.14 | 0.685 | 0.144 | 0.347 | 0.27 | 0.28 | 0.16 | 0.0845 | 0.898 | 0.835 | 0.864 | 0.877 | 0.901 | 0.401 | 0.405 | 0.424 | 0.382 | 0.414
NCI-H1944 | 0.34 | 0.314 | 0.349 | 0.319 | 0.276 | 0.23 | 0.209 | 0.197 | 0.147 | 0.107 | 0.975 | 1.05 | 1.05 | 1.06 | 1.02 | 0.258 | 0.254 | 0.287 | 0.263 | 0.24
NCI-H1975 | 0.271 | 0.22 | 0.173 | 0.105 | 0.115 | 0.356 | 0.394 | 0.325 | 0.124 | 0.061 | 0.969 | 0.897 | 0.962 | 0.79 | 0.518 | 0.706 | 0.837 | – | 0.658 | 0.131
NCI-H1993 | 0.915 | 0.654 | 0.804 | 0.528 | 0.625 | 0.613 | 0.527 | 0.565 | 0.44 | 0.37 | 0.922 | 0.916 | 1.02 | 0.932 | 0.986 | 0.594 | 0.637 | 0.618 | 0.604 | 0.624
NCI-H2009 | 0.602 | 0.675 | 0.797 | 0.0767 | 0.06 | 0.325 | 0.307 | 0.329 | 0.15 | 0.0844 | 1.07 | 0.905 | 0.952 | 0.355 | 0.257 | 0.771 | 0.824 | 0.703 | 0.291 | 0.255
NCI-H2023 | 0.235 | 0.215 | 0.286 | 0.162 | 0.0837 | 0.575 | 0.588 | 0.555 | 0.0936 | 0.0621 | 0.764 | 0.638 | 0.6 | 0.601 | 0.568 | 0.365 | 0.354 | 0.297 | 0.145 | 0.151
NCI-H2085 | 0.404 | 0.465 | 0.447 | 0.39 | 0.218 | 0.245 | 0.232 | 0.276 | 0.255 | 0.2 | 0.961 | 0.865 | 0.791 | 0.798 | 0.334 | 0.751 | 0.826 | 0.895 | 0.776 | 0.645
NCI-H2087 | 0.77 | 0.74 | 0.7 | 0.159 | 0.0891 | 0.934 | 0.601 | 0.627 | 0.182 | 0.0767 | 0.818 | 0.864 | 0.83 | 0.768 | 0.294 | 0.248 | 0.239 | 0.229 | 0.206 | 0.161
NCI-H2126 | 0.462 | 0.497 | 0.535 | 0.465 | 0.483 | 0.64 | 0.696 | 0.662 | 0.476 | 0.189 | 1.06 | 0.987 | 0.952 | 1.02 | 0.965 | 0.908 | 0.827 | 0.87 | 0.832 | 0.819
NCI-H2170 | 0.29 | 0.238 | 0.329 | 0.294 | 0.202 | 0.573 | 0.563 | 0.471 | 0.203 | 0.112 | 1.13 | 1.13 | 1.11 | 1.2 | 1.09 | 0.759 | 0.758 | 0.718 | 0.715 | 0.753
NCI-H2228 | 0.373 | 0.418 | 0.355 | 0.109 | 0.115 | 0.448 | 0.539 | 0.369 | 0.0563 | 0.0381 | 0.404 | 0.488 | 0.464 | 0.299 | 0.233 | 0.278 | 0.318 | 0.29 | 0.257 | 0.21
NCI-H2347 | 0.803 | 0.587 | 0.564 | 0.318 | 0.0071 | 0.297 | 0.305 | 0.336 | 0.293 | 0.24 | 0.738 | 0.671 | 0.556 | 0.742 | 0.382 | 0.504 | 0.684 | – | 0.549 | 0.423

From the supplement of paper PMC10307832
